# Tests used:
# Assay in all cases: relative viability (nuclei count vs DMSO), 5 days (fraction); higher = more cells survive
# [1] = test system: EMC-BAC-2
# In short: (§1)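 Relative viability was taken as the ratio of nuclei in treated wells to nuclei in vehicle wells. Lung cancer cell lines in 1536-well plates received compounds by pin tool one day after seeding, either one drug alone or a fixed anchor-drug dose plus five library-drug doses (not always all listed) in √10 steps. Nuclei were counted on 4× images after 5 days of treatment, and values are medians of duplicate plates.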
# [2] = test system: EPLC-272H
# In short: as §1
# [3] = test system: H3255
# In short: as §1
# [4] = test system: HOP-62
# In short: as §1
# [5] = test system: LCLC-97TM1
# In short: as §1
# [6] = test system: LXF-289
# In short: as §1
# [7] = test system: NCI-H1734
# In short: as §1
# [8] = test system: NCI-H1915
# In short: as §1
# [9] = test system: NCI-H1993
# In short: as §1
# [10] = test system: NCI-H2009
# In short: as §1
# [11] = test system: NCI-H2023
# In short: as §1
# [12] = test system: NCI-H2085
# In short: as §1
# [13] = test system: NCI-H2126
# In short: as §1
# [14] = test system: NCI-H2347
# In short: as §1
# [15] = test system: NCI-H322M
# In short: as §1
# [16] = test system: NCI-H647
# In short: as §1
# [17] = test system: NCI-H661
# In short: as §1
# [18] = test system: NCI-H727
# In short: as §1
# [19] = test system: PC-14
# In short: as §1
# [20] = test system: SK-LU-1
# In short: as §1
# [21] = test system: SW 1573
# In short: as §1
compound,measurement,setting,value
O=c1cc(N2CCOCC2)oc2c(-c3cccc4c3sc3ccccc34)cccc12 + Cc1cc(Nc2cc(N3CCN(C)CC3)nc(Sc3ccc(NC(=O)C4CC4)cc3)n2)n[nH]1 [Tozasertib] (partner 0.1 µM),relative viability,[1]; first compound 0.01 µM,0.303
same,relative viability,[1]; first compound 0.03162 µM,0.29
same,relative viability,[1]; first compound 0.1 µM,0.313
same,relative viability,[1]; first compound 0.3162 µM,0.33
same,relative viability,[1]; first compound 1 µM,0.304
same,relative viability,[2]; first compound 0.01 µM,0.288
same,relative viability,[2]; first compound 0.03162 µM,0.327
same,relative viability,[2]; first compound 0.3162 µM,0.206
same,relative viability,[2]; first compound 1 µM,0.253
same,relative viability,[3]; first compound 0.01 µM,0.789
same,relative viability,[3]; first compound 0.03162 µM,0.484
same,relative viability,[3]; first compound 0.1 µM,0.709
same,relative viability,[3]; first compound 0.3162 µM,0.593
same,relative viability,[3]; first compound 1 µM,0.606
same,relative viability,[4]; first compound 0.01 µM,0.336
same,relative viability,[4]; first compound 0.03162 µM,0.315
same,relative viability,[4]; first compound 0.1 µM,0.402
same,relative viability,[4]; first compound 0.3162 µM,0.325
same,relative viability,[4]; first compound 1 µM,0.382
same,relative viability,[5]; first compound 0.01 µM,0.262
same,relative viability,[5]; first compound 0.03162 µM,0.246
same,relative viability,[5]; first compound 0.1 µM,0.28
same,relative viability,[5]; first compound 0.3162 µM,0.214
same,relative viability,[5]; first compound 1 µM,0.219
same,relative viability,[6]; first compound 0.01 µM,0.235
same,relative viability,[6]; first compound 0.03162 µM,0.216
same,relative viability,[6]; first compound 0.1 µM,0.218
same,relative viability,[6]; first compound 0.3162 µM,0.174
same,relative viability,[6]; first compound 1 µM,0.197
same,relative viability,[7]; first compound 0.01 µM,0.236
same,relative viability,[7]; first compound 0.03162 µM,0.264
same,relative viability,[7]; first compound 0.1 µM,0.307
same,relative viability,[7]; first compound 0.3162 µM,0.259
same,relative viability,[7]; first compound 1 µM,0.243
same,relative viability,[8]; first compound 0.01 µM,0.419
same,relative viability,[8]; first compound 0.03162 µM,0.438
same,relative viability,[8]; first compound 0.1 µM,0.485
same,relative viability,[8]; first compound 0.3162 µM,0.456
same,relative viability,[8]; first compound 1 µM,0.422
same,relative viability,[9]; first compound 0.01 µM,0.554
same,relative viability,[9]; first compound 0.03162 µM,0.581
same,relative viability,[9]; first compound 0.1 µM,0.569
same,relative viability,[9]; first compound 0.3162 µM,0.566
same,relative viability,[9]; first compound 1 µM,0.62
same,relative viability,[10]; first compound 0.01 µM,0.747
same,relative viability,[10]; first compound 0.03162 µM,0.704
same,relative viability,[10]; first compound 0.1 µM,0.8
same,relative viability,[10]; first compound 0.3162 µM,0.708
same,relative viability,[10]; first compound 1 µM,0.708
same,relative viability,[11]; first compound 0.01 µM,0.353
same,relative viability,[11]; first compound 0.03162 µM,0.402
same,relative viability,[11]; first compound 0.1 µM,0.438
same,relative viability,[11]; first compound 0.3162 µM,0.359
same,relative viability,[11]; first compound 1 µM,0.373
same,relative viability,[12]; first compound 0.01 µM,0.841
same,relative viability,[12]; first compound 0.03162 µM,0.813
same,relative viability,[12]; first compound 0.1 µM,0.741
same,relative viability,[12]; first compound 0.3162 µM,0.73
same,relative viability,[12]; first compound 1 µM,0.77
same,relative viability,[13]; first compound 0.01 µM,0.781
same,relative viability,[13]; first compound 0.03162 µM,0.839
same,relative viability,[13]; first compound 0.1 µM,0.839
same,relative viability,[13]; first compound 0.3162 µM,0.794
same,relative viability,[13]; first compound 1 µM,0.789
same,relative viability,[14]; first compound 0.01 µM,0.618
same,relative viability,[14]; first compound 0.03162 µM,0.599
same,relative viability,[14]; first compound 0.1 µM,0.538
same,relative viability,[14]; first compound 0.3162 µM,0.526
same,relative viability,[14]; first compound 1 µM,0.549
same,relative viability,[15]; first compound 0.01 µM,0.49
same,relative viability,[15]; first compound 0.03162 µM,0.464
same,relative viability,[15]; first compound 0.1 µM,0.485
same,relative viability,[15]; first compound 0.3162 µM,0.473
same,relative viability,[15]; first compound 1 µM,0.407
same,relative viability,[16]; first compound 0.01 µM,0.369
same,relative viability,[16]; first compound 0.03162 µM,0.32
same,relative viability,[16]; first compound 0.1 µM,0.262
same,relative viability,[16]; first compound 0.3162 µM,0.295
same,relative viability,[16]; first compound 1 µM,0.226
same,relative viability,[17]; first compound 0.01 µM,0.367
same,relative viability,[17]; first compound 0.03162 µM,0.356
same,relative viability,[17]; first compound 0.1 µM,0.335
same,relative viability,[17]; first compound 0.3162 µM,0.36
same,relative viability,[17]; first compound 1 µM,0.362
same,relative viability,[18]; first compound 0.01 µM,0.607
same,relative viability,[18]; first compound 0.03162 µM,0.644
same,relative viability,[18]; first compound 0.1 µM,0.673
same,relative viability,[18]; first compound 0.3162 µM,0.632
same,relative viability,[18]; first compound 1 µM,0.673
same,relative viability,[19]; first compound 0.01 µM,0.567
same,relative viability,[19]; first compound 0.03162 µM,0.572
same,relative viability,[19]; first compound 0.1 µM,0.575
same,relative viability,[19]; first compound 0.3162 µM,0.535
same,relative viability,[19]; first compound 1 µM,0.577
same,relative viability,[20]; first compound 0.01 µM,0.314
same,relative viability,[20]; first compound 0.03162 µM,0.298
same,relative viability,[20]; first compound 0.1 µM,0.393
same,relative viability,[20]; first compound 0.3162 µM,0.308
same,relative viability,[20]; first compound 1 µM,0.329
same,relative viability,[21]; first compound 0.01 µM,0.198
same,relative viability,[21]; first compound 0.03162 µM,0.159
same,relative viability,[21]; first compound 0.1 µM,0.164
same,relative viability,[21]; first compound 0.3162 µM,0.157
same,relative viability,[21]; first compound 1 µM,0.166

# Source: the supplement of paper PMC10307832
